Consider 1 molecule from patent US20230132088A1, “DETECTION OF GENE POLYMORPHISMS” (The Board of Trustees of the Leland Stanford Junior …, priority 2020, published 2023).

This series in a line: Population pharmacokinetic analysis of INH clearance in tuberculosis patients, by predicted NAT2 acetylator type. The note with it: human, plasma, INH clearance rate (median), 48 pulmonary TB patients.

Molecules are shown by their SMILES.

For `NNC(=O)c1ccncc1` [INH, isoniazid], the clearance – broadly, a measure of how efficiently the substance is removed, as volume per time – runs as follows: (predicted fast (rapid) acetylators) 778 mL/min; (predicted intermediate acetylators) 683 mL/min; (predicted slow acetylators, standardized weight-based dosing) 322 mL/min.
